Test results published in patent US7524853B2 (Solvay Pharmaceuticals B.V., priority 2003, dated 2009).

Columns and labels:
Format in all cases: cell-based
[1] = target: T1, 17β-hydroxysteroid dehydrogenase type 3 (17β-HSD type 3) (Homo sapiens, UniProt P37058); experiment: Inhibition of 17β-HSD type 3 in MCF-7 cells stably expressing the isoenzyme (tritium labeled androstenedione conversion, HPLC); settings: MCF7, MCF-7 cells expressing 17β-HSD type 3, 2 nM tritium labeled androstenedione; for inhibition at 1 µM: 1 μM test compound, read-out: % Inhibition HSD3 1 μM; for inhibition at 10 µM: 10 μM test compound, read-out: % Inhibition HSD3 10 μM
T1 construct: expressed in transfected cells; host or cells: MCF-7
T1 sequence (P37058 1-310): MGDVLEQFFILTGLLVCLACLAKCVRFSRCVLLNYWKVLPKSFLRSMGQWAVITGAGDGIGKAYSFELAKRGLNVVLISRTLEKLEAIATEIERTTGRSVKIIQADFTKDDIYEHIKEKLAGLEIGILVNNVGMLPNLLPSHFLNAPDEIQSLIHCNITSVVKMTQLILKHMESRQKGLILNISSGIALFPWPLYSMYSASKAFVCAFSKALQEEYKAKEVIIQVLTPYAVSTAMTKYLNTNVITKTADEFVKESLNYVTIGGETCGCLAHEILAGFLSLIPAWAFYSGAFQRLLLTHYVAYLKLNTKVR
Text: (§1) Biological Testing Materials and Methods 1. Inhibition of the 17β-hydroxysteroid dehydrocienase type 1, type 2 and type 3 enzyme
(§2) The compounds were screened in respect of 17β-HSD enzyme activity in vitro on established MCF-7 cell lines, each stably expressing one of the respective 17β-HSD isoenzymes. The interconversion of substrate by each isoenzyme and the 17β-HSD inhibiting activity of chemical compounds in these cell lines were detected by HPLC system.
(§3) Varying amounts of the test compounds were incubated in the growth medium of the 17β-HSD expressing cells together tritium labeled substrate (2 nM estrone for 17β-HSD type 1; 2 nM estradiol for 17β-HSD type 2; and 2 nM androstenedione for 17β-HSD type 3). The medium samples were removed after exact incubation time and the reaction is stopped by trichloroacetic acid (TCA). The samples were analyzed by HPLC-coupled flow scintillation analysis.
(§4) For each enzyme type, the HSD-inhibiting activity of an individual test compound was calculated by comparing the conversion of a control sample without any test compound (referred to as “Negative Control”) to the (reduced) conversion of the test sample containing the particular compound to be tested (referred to as “Test Sample”).
(§5) Two concentrations of each compound were used. The number of the compound refers to the numbers indicated in the Experimental Section.

[2] = target: T2, 17β-hydroxysteroid dehydrogenase type 2 (17β-HSD type 2) (Homo sapiens, UniProt P37059); experiment: Inhibition of 17β-HSD type 2 in MCF-7 cells stably expressing the isoenzyme (tritium labeled estradiol conversion, HPLC); settings: MCF7, MCF-7 cells expressing 17β-HSD type 2, 2 nM tritium labeled estradiol; for inhibition at 1 µM: 1 μM test compound, read-out: % Inhibition HSD2 1 μM; for inhibition at 10 µM: 10 μM test compound, read-out: % Inhibition HSD2 10 μM
T2 construct: expressed in transfected cells; host or cells: MCF-7
T2 sequence (P37059 1-387): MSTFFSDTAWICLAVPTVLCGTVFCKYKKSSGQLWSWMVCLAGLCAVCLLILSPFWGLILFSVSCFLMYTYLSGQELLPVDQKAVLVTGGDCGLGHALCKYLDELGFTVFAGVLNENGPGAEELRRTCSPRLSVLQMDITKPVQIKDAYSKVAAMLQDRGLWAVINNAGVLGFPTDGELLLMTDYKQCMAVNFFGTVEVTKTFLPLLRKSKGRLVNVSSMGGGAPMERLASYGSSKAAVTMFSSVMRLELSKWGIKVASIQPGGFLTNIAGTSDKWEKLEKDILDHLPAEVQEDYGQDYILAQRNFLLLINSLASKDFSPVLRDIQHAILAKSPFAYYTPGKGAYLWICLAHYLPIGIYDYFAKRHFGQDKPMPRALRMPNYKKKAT
Text: as §1, §2, §3, §4, §5

[3] = target: T3, 17β-hydroxysteroid dehydrogenase type 1 (17β-HSD type 1) (Homo sapiens, UniProt P14061); experiment: Inhibition of 17β-HSD type 1 in MCF-7 cells stably expressing the isoenzyme (tritium labeled estrone conversion, HPLC); settings: MCF7, MCF-7 cells expressing 17β-HSD type 1, 2 nM tritium labeled estrone; for inhibition at 1 µM: 1 μM test compound, read-out: % Inhibition HSD1 1 μM; for inhibition at 10 µM: 10 μM test compound, read-out: % Inhibition HSD1 10 μM
T3 construct: expressed in transfected cells; host or cells: MCF-7
T3 sequence (P14061 1-328): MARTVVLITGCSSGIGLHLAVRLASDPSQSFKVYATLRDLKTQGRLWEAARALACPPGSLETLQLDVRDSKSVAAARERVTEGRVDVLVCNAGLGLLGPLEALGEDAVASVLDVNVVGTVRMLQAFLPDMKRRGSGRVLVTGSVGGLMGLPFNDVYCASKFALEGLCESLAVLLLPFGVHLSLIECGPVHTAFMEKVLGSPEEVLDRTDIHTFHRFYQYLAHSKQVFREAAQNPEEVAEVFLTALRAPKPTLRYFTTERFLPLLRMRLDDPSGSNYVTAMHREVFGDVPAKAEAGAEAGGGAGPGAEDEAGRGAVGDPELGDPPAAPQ
Text: as §1, §2, §3, §4, §5

Row | inhibition at 1 µM [1] [%] | inhibition at 10 µM [1] [%] | inhibition at 1 µM [2] [%] | inhibition at 10 µM [2] [%] | inhibition at 1 µM [3] [%] | inhibition at 10 µM [3] [%] | Compound
1 | 3 | 59.1 | 19.5 | 19.9 | 28 | 43.6 | COc1ccc(-c2nc3sc4c(c3c(=O)n2Cc2ccccc2)CCCC4=O)cc1 [No. 13, 3-Benzyl-2-(p-methoxyphenyl)-6,7-dihydro-3H,5H-benzo[4,5]thieno[2,3-d]pyrimidine-4,8-dione]
2 | 22.7 | 80.8 | 0.5 | 18.8 | 8.6 | 29.7 | COc1ccc(-c2nc3sc4c(c3c(=O)n2Cc2ccccc2)CCC(C=O)=C4Cl)cc1 [No. 14]
3 | 18.5 | 61.2 | -5.5 | 7.3 | -9.9 | -6.5 | CCOC(=O)C1=Cc2sc3nc(-c4ccc(OC)cc4)n(Cc4ccccc4)c(=O)c3c2CC1 [No. 15, 3-Benzyl-2-(p-methoxyphenyl)-4-oxo-3,4,5,6-tetrahydro-benzo[4,5]thieno[2,3-d]pyrimidine-7-carboxylic acid ethyl ester]
4 | 75.7 | 100 | 5 | 20.1 | 1.7 | 33.5 | CCSC1=C(C=O)CCc2c1sc1nc(-c3ccc(OC)cc3)n(Cc3ccccc3)c(=O)c21 [No. 16, 3-Benzyl-8-ethylsulfanyl-2-(p-methoxyphenyl)-4-oxo-3,4,5,6-tetrahydro-benzo[4,5]thieno[2,3-d]pyrimidine-7-carbaldehyde]
5 | 43.5 | 100 | -5.4 | 20.9 | 18.1 | 48.3 | COc1ccc(-c2nc3sc4cc(C=O)ccc4c3c(=O)n2Cc2ccccc2)cc1 [No. 17, 3-Benzyl-2-(p-methoxyphenyl)-4-oxo-3,4-dihydro-benzo[4,5]thieno[2,3-d]pyrimidine-7-carbaldehyde]
6 | 66.1 | 100 | 0 | 15.1 | 12.1 | 25.9 | CCSc1c(C=O)ccc2c1sc1nc(-c3ccc(OC)cc3)n(Cc3ccccc3)c(=O)c12 [No. 18, 3-Benzyl-8-ethylsulfanyl-2-(p-methoxyphenyl)-4-oxo-3,4-dihydro-benzo[4,5]thieno[2,3-d]pyrimidine-7-carbaldehyde]
7 | 32.7 | 100 | 4.9 | 21.1 | 10.2 | 32 | CCSC1=C(CO)CCc2c1sc1nc(-c3ccc(OC)cc3)n(Cc3ccccc3)c(=O)c21 [No. 19]
8 | 9.9 | 61.1 | -1.7 | 16.6 | 26 | 37.5 | COc1ccc(-c2nc3sc4c(Oc5ccccc5)c(CO)ccc4c3c(=O)n2Cc2ccccc2)cc1 [No. 20, 3-Benzyl-7-hydroxymethyl-2-(p-methoxyphenyl)-8-phenoxy-3H-benzo[4,5]thieno[2,3-d]pyrimidin-4-one]
9 | -4.8 | 6.4 | -0.8 | 12.7 | -1.8 | -4.4 | COc1ccc(-c2nc3sc4c(Oc5ccccc5)c(C)ccc4c3c(=O)n2Cc2ccccc2)cc1 [No. 21, 3-Benzyl-7-methyl-2-(p-methoxyphenyl)-8-phenoxy-3H-benzo[4,5]thieno[2,3-d]pyrimidin-4-one]
10 | -1.8 | 28.6 | 13 | 14.9 | 26 | 38.1 | COc1ccc(-c2nc3sc4c(c3c(=O)n2-c2ccccc2)CCCC4)cc1 [No. 22, 3-Phenyl-2-(p-methoxyphenyl)-5,6,7,8-tetrahydro-3H-benzo[4,5]thieno[2,3-d]pyrimidin-4-one]
11 | 6.8 | 15.4 | 6.8 | 9.4 | 18.6 | 45.3 | COc1ccc(-c2nc3sc4c(c3c(=O)n2-c2ccccc2)CCCC4=O)cc1 [No. 23, 3-Phenyl-2-(p-methoxyphenyl)-6,7-dihydro-3H,5H-benzo[4,5]thieno[2,3-d]pyrimidin-4,8-dione]
12 | 17.1 | 30.9 | 4.1 | 9.7 | -7.5 | 15.4 | Cc1nc2sc3c(c2c(=O)n1-c1ccccc1)CCCC3 [No. 24, 2-Methyl-3-phenyl-5,6,7,8-tetrahydro-3H-benzo[4,5]thieno[2,3-d]pyrimidin-4-one]
13 | 25.7 | 29 | 5.5 | 7.9 | 5.9 | 13.8 | Cc1nc2sc3c(c2c(=O)n1-c1ccccc1)CCCC3=O [No. 25, 2-Methyl-3-phenyl-6,7-dihydro-3H,5H-benzo[4,5]thieno[2,3-d]pyrimidine-4,8-dione]
14 | -6.1 | 7.1 | -1.8 | 32.3 | 23.5 | 37.4 | COC(=O)Cc1nc2sc3c(c2c(=O)n1Cc1ccccc1)CCCC3 [No. 26, 2-(acetic acid methyl ester)-3-benzyl-5,6,7,8-tetrahydro-3H-benzo[4,5]thieno[2,3-d]pyrimidin-4-one]
15 | -14.4 | 12.2 | 8.5 | 7.2 | 11.2 | 32.3 | COCc1nc2sc3c(c2c(=O)n1Cc1ccccc1)CCCC3 [No. 27, 3-Benzyl-2-methoxymethyl-5,6,7,8-tetrahydro-3H-benzo[4,5]thieno[2,3-d]pyrimidin-4-one]
16 | 1.9 | 16.7 | 12.9 | 16.3 | 2.6 | 18 | O=c1c2c3c(sc2nc(CO)n1Cc1ccccc1)CCCC3 [No. 28, 3-Benzyl-2-hydroxymethyl-5,6,7,8-tetrahydro-3H-benzo[4,5]thieno[2,3-d]pyrimidin-4-one]
17 | 16.9 | 28.4 | 8.5 | 21.1 | 9 | 15.5 | CC(=O)OCc1nc2sc3c(c2c(=O)n1Cc1ccccc1)CCCC3 [No. 29, Acetic acid 3-benzyl-4-oxo-3,4,5,6,7,8-hexahydro-benzo[4,5]thieno[2,3-d]pyrimidin-2-ylmethyl ester]
